Results as given in ChEMBL document CHEMBL4715815, “Design, synthesis and biological evaluation of 7H-pyrrolo[2,3-d]pyrimidin-4-amine derivatives as selective Btk inhibitors with improved pharmacokinetic properties for the treatment of rheumatoid arthritis” (Eur J Med Chem, 2018).
Values after ≈ are worked out from the molar mass of the structure shown. Active and inactive are the calls of the source. The rule behind the calls is not given here.

What was measured:
[1] = molecular target: Tyrosine-protein kinase BTK (Homo sapiens, UniProt Q06187); assay: Inhibition of BTK (unknown origin) by caliper mobility shift assay
Chain of Tyrosine-protein kinase BTK (Q06187 whole entry): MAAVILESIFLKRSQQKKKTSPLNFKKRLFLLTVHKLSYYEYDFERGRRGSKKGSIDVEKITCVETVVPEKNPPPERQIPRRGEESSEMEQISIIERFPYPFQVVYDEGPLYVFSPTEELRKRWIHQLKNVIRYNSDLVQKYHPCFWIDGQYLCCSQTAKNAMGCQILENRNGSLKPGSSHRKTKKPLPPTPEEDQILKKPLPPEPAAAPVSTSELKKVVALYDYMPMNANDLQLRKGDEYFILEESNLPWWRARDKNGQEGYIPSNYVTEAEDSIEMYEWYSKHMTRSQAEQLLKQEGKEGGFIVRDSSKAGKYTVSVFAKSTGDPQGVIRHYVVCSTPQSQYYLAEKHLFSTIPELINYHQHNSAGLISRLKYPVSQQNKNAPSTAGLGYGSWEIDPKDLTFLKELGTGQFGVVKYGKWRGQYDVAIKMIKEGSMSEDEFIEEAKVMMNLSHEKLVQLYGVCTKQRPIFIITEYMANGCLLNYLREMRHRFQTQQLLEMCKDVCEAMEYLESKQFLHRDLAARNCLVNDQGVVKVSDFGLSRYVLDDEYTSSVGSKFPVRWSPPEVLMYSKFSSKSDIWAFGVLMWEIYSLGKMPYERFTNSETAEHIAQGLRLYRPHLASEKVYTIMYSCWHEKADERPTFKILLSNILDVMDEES

[2] = Aqueous solubility of compound at 1 mg; settings: aqueous medium
HEK293 = assay: Cytotoxicity against human HEK293 cells assessed as reduction in cell viability incubated for 72 hrs by MTT assay; assay type: ADME, cell-based; settings: HEK293, 72 h
THP-1 = assay: Cytotoxicity against human THP-1 cells assessed as reduction in cell viability incubated for 72 hrs by MTT assay; assay type: ADME, cell-based; settings: THP-1, 72 h
L02 = assay: Cytotoxicity against human L02 cells assessed as reduction in cell viability incubated for 72 hrs by MTT assay; assay type: ADME, cell-based; settings: L02, 72 h
Mus musculus = assay: Antiarthritic activity in DBA/1J mouse model of collagen-induced arthritis at 20 mg/kg, po administered for 30 days and measured on day 30; assay type: functional, organism-based; settings: time 30.0 day
[3] = Inhibition of recombinant human PI3K using PIP2 as substrate incubate for 15 mins by LANCE assay

Row | SMILES | IC50 [1] [nM] | solubility [2] [µg/mL] | IC50 (HEK293) [nM] | IC50 (THP-1) [µM] | IC50 (L02) [µM] | Activity (Mus musculus) | IC50 [3] [µM]
1 | C=CC(=O)N1CCC(Cn2cc(-c3ccc(Oc4ccccc4)cc3)c3c(N)ncnc32)CC1 | 6.09 | < 10 | 13300 | 16.7 | 16 |  | 
2 | C=CC(=O)N1CCC(CCn2cc(-c3ccc(Oc4ccccc4)cc3)c3c(N)ncnc32)CC1 |  | < 10 | 10200 | 18.9 | 15.2 |  | 
3 | C=CC(=O)N1CCCC(Cn2cc(-c3ccc4c(c3)OCO4)c3c(N)ncnc32)C1 (single isomer, unassigned; form 1) |  | 100 (≈ 247 µM) |  |  |  |  | 
4 | C=CC(=O)N1CCC[C@@H](n2nc(-c3ccc(Oc4ccccc4)cc3)c3c(N)ncnc32)C1 [IBRUTINIB] |  | < 10 | 19300 | 20.1 | 17.4 | Active | > 10
5 | C=CC(=O)N1CCC(Cn2cc(-c3ccc(OCc4ccccc4)cc3)c3c(N)ncnc32)CC1 | 77 | < 10 |  |  |  |  | 
6 | C=CS(=O)(=O)N1CCC(Cn2cc(-c3ccc(Oc4ccccc4)cc3)c3c(N)ncnc32)CC1 |  | < 10 | 2700 | 3.3 | 3.2 |  | 
7 | C=CS(=O)(=O)N1CCC(Cn2nc(-c3ccc(Oc4ccccc4)cc3)c3c(N)ncnc32)CC1 |  | < 10 | 1600 | 18.3 | 19.1 |  | 
8 | C=CC(=O)N1CCC(CCn2cc(-c3ccc4c(c3)OCO4)c3c(N)ncnc32)CC1 |  | < 100 |  |  |  |  | 
9 | C=CC(=O)N1CCCC(Cn2cc(-c3ccc(Oc4ccccc4)cc3)c3c(N)ncnc32)C1 (single isomer, unassigned; form 1) |  | < 10 | 2900 | 8.8 | 11.7 |  | 
10 | CN(C)C/C=C/C(=O)N1CCC(Cn2cc(-c3ccc4c(c3)OCO4)c3c(N)ncnc32)CC1 |  | < 100 |  |  |  |  | 
11 | C=CC(=O)N1CCCC(Cn2cc(-c3ccc(Oc4ccccc4)cc3)c3c(N)ncnc32)C1 (single isomer, unassigned; form 2) |  | < 10 | 1300 | 10.7 | 14.2 |  | 
12 | C=CC(=O)N1CCC(Cn2nc(-c3ccc(Oc4ccccc4)cc3)c3c(N)ncnc32)CC1 |  | < 10 | 11200 | 15.7 | 10.9 |  | 
13 | C=CS(=O)(=O)N1CCC(Cn2nc(-c3ccc4c(c3)OCO4)c3c(N)ncnc32)CC1 |  | 100 (≈ 226 µM) | 2800 | 14.4 | 10.1 |  | 
14 | C=CS(=O)(=O)N1CCC(Cn2cc(-c3ccc4c(c3)OCO4)c3c(N)ncnc32)CC1 |  | 100 (≈ 226 µM) | 2500 | 3.7 | 3.2 |  | 
15 | C=CC(=O)N1CCCC(Cn2cc(-c3ccc4c(c3)OCO4)c3c(N)ncnc32)C1 (single isomer, unassigned; form 2) |  | 100 (≈ 247 µM) |  |  |  |  | 
16 | C=CC(=O)N1CCC(Cn2nc(-c3ccc4c(c3)OCO4)c3c(N)ncnc32)CC1 |  | 100 (≈ 246 µM) |  |  |  |  | 
17 | CN(C)C/C=C/C(=O)N1CCC(Cn2cc(-c3ccc(Oc4ccccc4)cc3)c3c(N)ncnc32)CC1 |  | < 10 | 4800 | 3.2 | 6.6 |  | 
